The values that follow come from patent US4276890A, “Tobacco smoking inhibitor” (priority 1979, dated 1981).

Values joined by “and” are separate entries in the source; they are usually repeats but may differ in a detail not shown here. Equal values may be shown once.

The test system of one data set is smoking level of smokers. As to the kind of experiment: Daily rates of smoking reduction (Example 5, Table II; comparison with placebo groups of Example 6). The data set is classed as in vivo, human (volunteer smokers). The conditions noted are these: for reduction in smoking level: 1,000 mg/day, eight slowly dissolving lozenges, individual subjects. The procedure:
Subjects who participated had prior knowledge of the purported effect of the treatment. They were asked to test a new dosage form and told that a "cure" was not necessarily to be expected in this test. The dosage was 1,000 mg/day of ethyl maltol divided over eight pieces of slowly dissolving lozenges, made essentially as described supra. Subjects administered their own dosage without supervision. The tests were designed and supervised by the inventor but carried out by intermediaries, in order to maximize the opportunity for objective evaluation of symptoms, and to minimize any possibility of investigative bias influencing the results. (True double blind tests are impossible because the gamma pyrone flavor is distinctive and virtually impossible to mask). Subjects were all in generally good health, and were selected to represent a variety of ages, occupational stresses, and personal life styles.
Levels of tobacco consumption were calculated taking into account the number of cigarettes smoked and the proportions smoked. They are expressed as percent reduction from the pretest smoking level.
During the same time period that the studies in Example Five were conducted, two groups of smokers were administered a placebo dosage comprising the same basic candy lozenge, but lacking any gamma pyrone and containing ascorbic and citric acids to impart a sharp, medicinal flavor.
This conclusion is further substantiated by analysis of variance. For such analysis, individual tests that were either incomplete or which presented unusual circumstances were discarded. Results from placebo groups one and two were pooled. The average percent reduction in smoking is plotted in FIG. 1, for the treatment and the placebo groups.

Another data set deals with mice. The conditions noted are these: cited from earlier work.
Data set [1] can be described thus: Dissolution in the mouth of gamma pyrone particles dispersed in chewing gum. Type of data set: physicochemical. The note with it: particles 300 to 400 mesh. The procedure:
The formation of a chewing gum for administering a gamma pyrone according to the invention is next described. Crystaline ethyl maltol was ground and sieved to 300 mesh. The ground particles acquired a static charge, tending to float upwards. In practice, it was possible to sieve the particles upwards, collecting only those which passed through the 300 mesh screen.
The ground particles were mixed at 45° C. with a plastic chewing gum base, until evenly distributed throughout the mass. The chewing gum base was selected to be free of amino acids, tannins and other flavoring elements capable of combining with gamma pyrone to yield bitter off flavors. The rate of release of gamma pyrone into the oral cavity is a function of the rate of solution of the gamma pyrone as the gum is chewed. The rate of solution is controlled by the size of the gamma pyrone particles dispersed in the gum. Optimally, for ethyl maltol, particles in the size range from 300 to 400 mesh when dispersed in such a matrix, are dissolved in the mouth in about 30 minutes. The gamma pyrone must be dispersed throughout the gum in particulate form to provide the desired sustained release effect, particles […] than 300-400 mesh dissolved more slowly, so that the incremental dose was delivered more slowly. […] particles dissolved more rapidly than desired so that the dose was delivered in an undesirably short time. […]

Data set [2] concerns tobacco consumption of habitual smokers. Briefly: General observations of treatment on tobacco consumption and subjective effects. The data set is classed as in vivo, human (test subjects. From the text: In a preferred embodiment, finely divided ethyl maltol is distributed in a chewing gum base, which when chewed by the subject, results in a gradual release of ethyl maltol into the oral cavity. When administered in appropriate amounts over a period of several days, there results a gradual decrease in the number of cigarettes smoked and the length of time they are smoked. […] Reductions in the frequency and quantity of smoking have been observed in test subjects who were unaware that their smoking behavior was monitored. […] Subjectively, test subjects experience a reduced desired to smoke, tend to neglect the opportunities to light up a cigarette and tend to leave cigarettes unsmoked in the ashtray after a few puffs. The effect is sufficiently subtle that a smoker is sometimes unaware that their tobacco consumption rate was decreased until such point as the lowered consumption rate becomes obvious. For smokers sincerely desiring to reduce or eliminate their smoking, the effect of the treatment is most gratifying. However, for smokers who are not psychologically committed to giving up smoking, the effects may be alarming. It is of course, possible to override the effects of the treatment by conscious effort to smoke at the pre-treatment rate.
Smoking behavior is complex and includes cigarette, pipe and cigar smoking. Both from the standpoint of habituation and of health hazard, cigarette smoking is considered to be the most serious. It is contemplated that the treatment method described herein will be effective to inhibit all forms of smoking behavior and combinations thereof, involving the consumption of tobacco. For convenience, the ensuing discussion focuses on cigarette smoking, as exemplary of smoking behavior in general. Tobacco consumption is a function the number of cigarettes smoked and the proportion of each cigarette smoked. Reduction of consumption is measured by comparison with a smoker's pretreatment consumption rate. All data used herein are expressed as percent reduction, i.e., the differential between pretreatment and current smoking consumption rate divided by the pretreatment rate, times 100. All rates are calculated to take into account both the number of cigarettes smoked and the proportion of each smoked.
Duration of treatment may be as little as ten days, preferably 20 to 30 days. As might be expected with a complex behavior such as smoking, where psychological and social factors play a major role in addition to individual variations in nicotine susceptibility and responsiveness to gamma pyrone, the rate of smoking reduction during treatment is highly variable. Typically, a gradual reduction to about 50% to the pretreatment rate is observed over the first four to six days. Frequently, little or no reduction is observed for the first two days, although occasionally a dramatic reduction is observed almost immediately. In the ensuing seven to ten days, further reductions, typically 70 to 100%, are observed. Reduction below the 50% level in the first 3-5 days is sometimes accompanied by the physiological (but not psychological) symptoms of nicotine withdrawl, such as vertigo, alimentary distress, diuresis, scotoma and disorientation. Such symptoms have never been observed in non-smoking control subjects using the same gamma pyrone dosages. […] The entire course of treatment is therefore extended somewhat, preferably to about 20 to 30 days total. […]

For `CCc1occc(=O)c1O` [ethyl maltol, 3-hydroxy-2-ethyl-4-pyrone], the “reduction in smoking level” value is 10% in the data set with smoking level of smokers (Day 1); 5% and 15% and 10% and 30% and 20% in the data set on smoking level of smokers (Day 2); 10% and 20% and 5% and 40% and 60% and 30% and 15% and 45% in the data set with smoking level of smokers (Day 3); 40% and 50% and 10% and 65% and 5% and 75% and 70% and 30% with smoking level of smokers (Day 4); 30% and 80% and 10% and 85% and 60% and 90% and 50% and 35% and 95% in the data set on smoking level of smokers (Day 5); 60% and 95% and 20% and 15% and 50% and 70% and 25% in the data set on smoking level of smokers (Day 6). Moreover, the “reduction in smoking level” value in the data set on smoking level of smokers (Day 7) is 50% and 40% and 20% and 90% and 65% and 85% and 30% and 45%; with smoking level of smokers (Day 8), 70% and 55% and 40% and 75% and 15% and 90% and 50%; in the data set with smoking level of smokers (Day 9), 80% and 70% and 20% and 65% and 95% and 90%; with smoking level of smokers (Day 10), 85% and 90% and 30% and 70% and 80%. The discontinuation result with smoking level of smokers (subject 10, after day 5, "beer tasted funny") is reported as “Discontinued”. Also, the “acute LD50” value with mice is reported as 910 mg per kg. Besides, the “dissolution time in the mouth from gum” value in data set [1] is “about 30 minutes”. The “tobacco consumption of habitual smokers” value in data set [2] (appropriate dosage levels and rates) is on record as “significantly reduces the tobacco consumption of habitual smokers”. Further, the “onset of reduced cigarette consumption” value in data set [2] (day of treatment) is on record as “about the second or third day of treatment”. Further, in data set [2] (treatment over several days), the “symptoms of nicotine withdrawal” value is recorded as “does not appear to be accompanied by the typical symptoms of nicotine withdrawal”.
